Legend:
Format in all cases: cell-based, human
HCT116 cells = experiment: Quantification of integration efficiency (colonies after antibiotic selection); settings: for Avg. Colonies: 450,000 cells transfected
Experimental: HCT116 cells were transfected with individual RGNs targeting either CTTN exon 8 or HLA-DRA, as well as Cas9, one universal RGN, and either one or two transfer vectors with expression cassettes conferring resistance to puromycin or puromycin and hygromycin. A total of 450,000 cells were transfected using 100 ng of each plasmid. The transfection efficiency was ˜55% as determined by FACS following delivery of a control GFP expression plasmid. Three days post transfection, 90% of cells from each well were harvested and replated into 10 cm dishes for selection with the appropriate antibiotics. Cells with monoallelic modifications were selected with puromycin whereas cells with biallelic modifications were selected with puromycin and hygromycin. Media and antibiotics were replenished every three days. Visible colonies appeared after approximately after one week. The number of clones for each transfection was counted and integration efficiency was determined as the ratio of the number of clonal cells derived from each transfection relative to the number of alleles modified by each specific sgRNA, as measured in experimental control samples using the surveyor assay.
Following selection in 10-cm plates with the appropriate antibiotic, total colonies were counted and divided by total cells transfected to obtain the overall editing efficiency of NAVI. This value was then adjusted to account for overall sgRNA editing efficiency, as measured by surveyor nuclease assay. This quantification was performed at 2 different loci using either a single or two antibiotics for selection.

NEUROD1 [1] = experiment: Activation of native gene expression in 293T cells, qPCR; settings: for induction of NEUROD1: 200 ng/mL doxycycline, NAVIa-edited 293T; for increase in NEUROD1 gene expression: idpTV-edited cells
Experimental: (§1) 293T and HCT116 cells were obtained from the American Tissue Collection Center (ATCC) and were maintained in DMEM supplemented with 10% fetal bovine serum and 1% penicillin/streptomycin at 37° C. with 5% CO2. 293T and HCT116 cells were transfected with Lipofectamine 2000 (Invitrogen) according to manufacturer's instructions. Transfection efficiencies were routinely higher than 80% for 293T cells and higher than 50% for HCT116 cells as determined by fluorescent microscopy following delivery of a control GFP expression plasmid. Induction of gene expression, unless otherwise noted, was carried out with 200 ng/mL doxycycline in DMEM prepared with 10% tetracycline-free FBS for 4 days.
(§2) Cells were harvested and flash-frozen in liquid nitrogen prior to RNA-extraction using the RNeasy Plus RNA isolation kit (Qiagen) according to manufacturer's instructions. cDNA synthesis was carried out using the qScript cDNA Synthesis Kit (Quanta Biosciences) from 1 μg of RNA and reactions were performed as directed by the supplier. For RT-qPCR, SsoFast EvaGreen Supermix (Bio-Rad) was added to cDNA and primers targeting the gene of interest and GAPDH (Table 10). Following 30 s at 95° C., qPCR (5 s at 95° C., 20 s at 55° C., 40 total cycles) preceded melt-curve analysis of the product by the CFX Connect Real-Time System (Bio-Rad). Ct values were used to calculate changes in expression level, relative to GAPDH and control samples by the 2^−ΔΔCt method.
In order to evaluate this gene activation architecture in the context of the human genome, three target genes were selected whose reported levels of activation utilizing CRISPRa are either high (ASCL1, ˜10^3-fold), medium (NEUROD1, ˜10^2-fold), or low (POU5F1, ˜10-fold). The primary sgRNAs targeting the genome were co-transfected into 293T cells with three plasmids containing (1) an expression cassette for active Cas9, (2) customized cspTV, cdpTV or idpTV, and (3) a universal secondary sgRNA. Following transfection, cells with integration of the TV were selected using puromycin and, in cells transfected with the idpTV, gene expression was induced with doxycycline. In parallel, one sgRNA or a mixture of 4 sgRNAs (previously validated for use with CRISPRa) were co-transfected into 293 Ts with dCas9-VPR for comparison of the NAVIa with CRISPRa. Gene expression using an individual sgRNA directing dCas9-VPR to target promoters was increased ˜10-fold for all targets tested but not statistically significant. Utilization of 4 sgRNAs simultaneously activated gene expression more effectively than 1 sgRNA (ASCL1: ˜1800-fold, NEUROD1: ˜2900-fold, POU5F:1 ˜90-fold). […] However, the idpTV (ASCL1: ˜7200-fold, NEUROD1: ˜76000-fold, POU5F1: ˜5370-fold) surpassed activation obtained using dCas9-VPR using 4 sgRNAs (FIG. 14B).

NEUROD1 [2] = experiment: NEUROD1 expression by qPCR in HCT116 and MRC-5 cells
Experimental: as §1, §2
To further explore the trends we observed in 293T cells, NeuroD1 was targeted using the cdpTV in other cell lines.

[3] = selection Puromycin + Hygromycin

Molecule | % Efficiency (adjusted by indel %) (HCT116 cells; selection Puromycin) | % Efficiency (colonies/transfected cells) (HCT116 cells; selection Puromycin) | % Efficiency (adjusted by indel %) (HCT116 cells; [3]) | % Efficiency (colonies/transfected cells) (HCT116 cells; [3]) | Avg. Colonies (HCT116 cells; [3]) | Avg. Colonies (HCT116 cells; selection Puromycin) | induction of NEUROD1 (NEUROD1 [1]; 12 h) | induction of NEUROD1 (NEUROD1 [1]; 24 h) | induction of NEUROD1 (NEUROD1 [1]; 48 h) | induction of NEUROD1 (NEUROD1 [1]; 96 h) | increase in NEUROD1 gene expression (NEUROD1 [1]; doxycycline 2 ng/mL, 96 h) | increase in NEUROD1 gene expression (NEUROD1 [1]; doxycycline 2 μg/mL, 96 h) | ratio of gene expression between samples with and without doxycycline treatment (NEUROD1 [2]; heterozygous clones) | ratio of gene expression between samples with and without doxycycline treatment (NEUROD1 [2]; homozygous clones) | ratio of gene expression between samples with and without doxycycline treatment (NEUROD1 [2]; pooled cells)
HLA-DRA: sgRNA, protospacer GCTGTGCTGATGAGCGCTC, SEQ ID NO 9 (expressed or natural sequence) | 26.40% | 0.58% | 4.60% | 0.10% | 453 | 2610 | – | – | – | – | – | – | – | – | –
CTTN exon 8: sgRNA, protospacer GCGCTCTTGTCTACTCGGT, SEQ ID NO 8 (expressed or natural sequence) | 12.00% | 0.38% | 5.00% | 0.16% | 725 | 1726 | – | – | – | – | – | – | – | – | –
C[C@H]1c2cccc(O)c2C(=O)C2=C(O)[C@]3(O)C(=O)C(C(N)=O)=C(O)[C@@H](N(C)C)[C@@H]3[C@@H](O)[C@@H]21 [doxycycline] | – | – | – | – | – | – | ~4000 fold | ~5000 fold | ~10000 fold | ~15000 fold | ~337 fold | ~26015 fold | ~426 fold | ~1486 fold | ~22 fold
